The values that follow come from US7385088B1, “Compounds from Antrodia camphorata” (Golden Biotechnology Corporation, priority 2007, dated 2008).

In brackets after ≈: the same amount, converted by molar mass.

Holding throughout (format): cell-based
One assay has as its system MCF-7. The assay is described as follows: MTT survival assay, breast cancer cells MCF-7. Conditions: Homo sapiens, MCF7, estrogen-dependent breast cancer cells, 48 hours. From the text: (§1) Therefore Antroquinonol B and Antroquinonol C can be used in inhibiting cancer cell growth of breast cancer, lung cancer, hepatic cancer, and prostate cancer, which can further be applied in cancer treatment of breast cancer, lung cancer, hepatic cancer, prostate cancer and the like. The details of the examples are described as follows: The NCI anti-cancer drug screen model was adopted to test the anti-cancer effect of the isolated compounds from example 1 in the present invention. The isolated Antroquinonol B and Antroquinonol C from example 1 were added into the culture media of human breast-cancer cells, MCF-7 or MDA-MB-231, to test for tumor cell survival. This survival assay was carried out with the widely known MTT (3-[4,5-dimethylthiazol-2-yl]2,5-diphenyltetrazolium bromide) assay. MCF-7 cell line is originated from primary breast cancer cells (early stage), sensitive to estrogen and therefore is estrogen-dependent, while MDA-MB-231 is insensitive to estrogen and therefore is estrogen-independent, which is a difficult tumor with a low survival rate. MTT assay is commonly used to determine cell proliferation, percent of viable cells, and cytotoxicity. […] The plates were read on an ELISA reader at wavelength of 570 nm to determine the survival rates.

In another assay the test system is MDA-MB-231. The assay is described as follows: MTT survival assay, breast cancer cells MDA-MB-231. As to conditions: Homo sapiens, estrogen-independent breast cancer cells, 48 hours.
Source text: as §1
A general note: Tetrazolium assays rely on reduction of a dye to a coloured formazan, in cell work by metabolically active cells.

In a further assay the test system is A549. The assay is described as follows: MTT survival assay, lung cancer cells A549. As to conditions: Homo sapiens, 48 hours. From the text:
Therefore Antroquinonol B and Antroquinonol C can be used in inhibiting cancer cell growth of breast cancer, lung cancer, hepatic cancer, and prostate cancer, which can further be applied in cancer treatment of breast cancer, lung cancer, hepatic cancer, prostate cancer and the like. The details of the examples are described as follows: MTT assay is commonly used to determine cell proliferation, percent of viable cells, and cytotoxicity. 3-[4,5-dimethylthiazol-2-yl]2,5-diphenyltetrazolium bromide (MTT) is a yellow dye, which can be absorbed by the living cells and be reduced to purplish blue formazan crystals by succinate tetrazolium reductase in mitochondria. Formazan formation can therefore be used to assess and determine the survival rate of cells. The NCI anti-cancer drug screen model was also employed to test the anti-lung cancer effect of the Antroquinonol B and Antroquinonol C in the present invention. The Antroquinonols isolated from example 1 were added into the culture media of human lung cancer cell A549 with the abovementioned MTT assay to analyze lung cancer cell survival rates. Human lung cancer cell A549 was obtained from the Bioresources Collection and Research Center (BCRC) of the Food Industry Research and Development Institute with an accession number of BCRC 60074. […] The plates were read on an ELISA reader at wavelength of 570 nm to determine the survival rates.

In a further assay the test system is Hep3B. The assay can be described thus: MTT survival assay, hepatic cancer cells Hep 3B. Conditions: Homo sapiens, 48 hours. From the text: (§2) Therefore Antroquinonol B and Antroquinonol C can be used in inhibiting cancer cell growth of breast cancer, lung cancer, hepatic cancer, and prostate cancer, which can further be applied in cancer treatment of breast cancer, lung cancer, hepatic cancer, prostate cancer and the like. The details of the examples are described as follows: MTT assay is commonly used to determine cell proliferation, percent of viable cells, and cytotoxicity. 3-[4,5-dimethylthiazol-2-yl]2,5-diphenyltetrazolium bromide (MTT) is a yellow dye, which can be absorbed by the living cells and be reduced to purplish blue formazan crystals by succinate tetrazolium reductase in mitochondria. Formazan formation can therefore be used to assess and determine the survival rate of cells. The NCI anti-cancer drug screen model was employed to test the anti-cancer effect of the Antroquinonol B and Antroquinono C in the present invention. The Antroquinonos isolated from example 1 were added into the culture media of human hepatic-cancer cells, Hep 3B or Hep G2, for tumor cell survival assay. Hepatic-cancer cells Hep 3B (BCRC 60434) and Hep G2 (BCRC 60025), were obtained from the Bioresources Collection and Research Center (BCRC) of the Food Industry Research and Development Institute. […] The plates were read on an ELISA reader at wavelength of 570 nm to determine the survival rates.

For another assay, the system named is HepG2. The assay can be described thus: MTT survival assay, hepatic cancer cells Hep G2. Conditions: Homo sapiens, 48 hours.
Source text: as §2

The test system of a further assay is LNCaP. The assay can be described thus: MTT survival assay, prostate cancer cells LNCaP. As to conditions: Homo sapiens, androgen-dependent prostate cancer cells, 48 hours. The text has this:
(§3) Therefore Antroquinonol B and Antroquinonol C can be used in inhibiting cancer cell growth of breast cancer, lung cancer, hepatic cancer, and prostate cancer, which can further be applied in cancer treatment of breast cancer, lung cancer, hepatic cancer, prostate cancer and the like. The details of the examples are described as follows:
(§4) MTT assay is commonly used to determine cell proliferation, percent of viable cells, and cytotoxicity. 3-[4,5-dimethylthiazol-2-yl]2,5-diphenyltetrazolium bromide (MTT) is a yellow dye, which can be absorbed by the living cells and be reduced to purplish blue formazan crystals by succinate tetrazolium reductase in mitochondria. Formazan formation can therefore be used to assess and determine the survival rate of cells.
(§5) The NCI anti-cancer drug screen model was also employed to test the anti-cancer effect of the Antroquinonols in the present invention. Antroquinonol B and Antroquinonol C isolated from example 2 were added into the culture media of human prostate cancer cells, LNCaP or DU-145, and prostate cancer cell survival rates were analyzed with the abovementioned MTT assay. […]
(§6) The human prostate-cancer cells, LNCaP and DU-145, were cultivated in media containing fetal calf serum for 24 hours. […] The plates were read on an ELISA reader at wavelength of 570 nm to determine the survival rates.

Another assay deals with DU-145. The assay is described as follows: MTT survival assay, prostate cancer cells DU-145. Conditions: Homo sapiens, androgen-independent prostate cancer cells, 48 hours.
Source text: as §3, §4, §5, §6

As for `COC1=C(OC)[C@H](O)[C@H](C/C=C(\C)CC/C=C(/C)C/C=C/C(C)(C)O)[C@@H](C)C1=O` [Antroquinonol B], the IC50 (as a rule, the concentration that inhibits the measured activity by half) with MCF-7 is 1.94 µg/mL (≈ 4.77 µM); with MDA-MB-231 it was 8.72 µg/mL (≈ 21.4 µM); with A549 it was 11.9 µg/mL (≈ 29.3 µM); in the assay on Hep3B it was 1.21 µg/mL (≈ 2.98 µM); in the assay on HepG2, 3.32 µg/mL (≈ 8.17 µM); with LNCaP, 5.67 µg/mL (≈ 13.9 µM). Further, in the assay on DU-145, half-maximal inhibition (IC50) required 10.1 µg/mL (≈ 24.9 µM).

For `COC1=C(OC)[C@H](O)[C@H](C/C=C(\C)CC/C=C(/C)C/C=C/C(C)(C)OC)[C@@H](C)C1=O` [Antroquinonol C], the IC50 in the assay on MCF-7 is 1.17 µg/mL (≈ 2.78 µM); in the assay on MDA-MB-231, 21.9 µg/mL (≈ 52.1 µM); in the assay with A549, 8.21 µg/mL (≈ 19.5 µM); in the assay on Hep3B, 1.32 µg/mL (≈ 3.14 µM); in the assay with HepG2, 5.12 µg/mL (≈ 12.2 µM); with LNCaP, 8.72 µg/mL (≈ 20.7 µM). For the same molecule, the IC50 in the assay on DU-145 was 12.2 µg/mL (≈ 29 µM).
